Molecular target: T1, GPR158 (Homo sapiens, UniProt Q5T848)
T1 sequence (Q5T848 24-1215): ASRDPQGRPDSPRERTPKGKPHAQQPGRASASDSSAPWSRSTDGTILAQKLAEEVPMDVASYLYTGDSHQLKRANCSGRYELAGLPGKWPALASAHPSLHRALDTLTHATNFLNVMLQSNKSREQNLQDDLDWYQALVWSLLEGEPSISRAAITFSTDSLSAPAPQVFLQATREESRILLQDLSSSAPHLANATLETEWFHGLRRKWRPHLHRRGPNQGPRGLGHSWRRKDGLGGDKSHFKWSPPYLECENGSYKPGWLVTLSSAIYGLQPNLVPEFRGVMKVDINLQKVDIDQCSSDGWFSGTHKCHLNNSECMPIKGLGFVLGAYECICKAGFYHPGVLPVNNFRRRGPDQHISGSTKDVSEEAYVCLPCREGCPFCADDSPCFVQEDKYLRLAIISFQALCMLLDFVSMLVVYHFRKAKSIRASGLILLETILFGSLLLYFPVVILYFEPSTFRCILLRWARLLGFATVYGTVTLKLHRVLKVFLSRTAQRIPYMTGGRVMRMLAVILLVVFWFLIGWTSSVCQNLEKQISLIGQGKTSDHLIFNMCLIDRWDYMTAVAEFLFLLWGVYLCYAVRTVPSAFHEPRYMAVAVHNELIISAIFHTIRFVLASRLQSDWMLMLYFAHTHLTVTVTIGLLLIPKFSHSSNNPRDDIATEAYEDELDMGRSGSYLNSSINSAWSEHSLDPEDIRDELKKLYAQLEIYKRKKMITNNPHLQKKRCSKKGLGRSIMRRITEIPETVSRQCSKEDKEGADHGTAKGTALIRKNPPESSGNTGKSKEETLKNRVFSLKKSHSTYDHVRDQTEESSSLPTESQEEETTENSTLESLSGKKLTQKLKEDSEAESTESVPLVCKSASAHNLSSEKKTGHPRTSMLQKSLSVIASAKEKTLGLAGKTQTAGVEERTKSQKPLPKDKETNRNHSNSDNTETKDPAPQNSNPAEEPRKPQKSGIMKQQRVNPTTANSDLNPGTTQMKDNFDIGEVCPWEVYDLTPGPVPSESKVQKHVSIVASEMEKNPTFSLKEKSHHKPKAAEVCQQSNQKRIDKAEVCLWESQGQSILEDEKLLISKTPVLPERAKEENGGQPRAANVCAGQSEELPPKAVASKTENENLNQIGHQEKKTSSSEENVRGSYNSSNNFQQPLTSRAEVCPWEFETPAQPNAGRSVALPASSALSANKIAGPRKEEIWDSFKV
Assay: Membrane radioligand saturation binding (Scatchard)
Design: expressed in transfected cells; host or cells: HEK293FT
Conditions: for Kd: Scatchard plot, HEK293 membranes expressing GPR158, n=4
Description: FIGS. 9A-9H. Direct interaction of glycine with GPR158 A) Schematics of assay design for detecting glycine binding to GPR158 by flow cytometry. Cells transfected with GPR158 are incubated with FITC-glycine and fluorescence labeling of cells is detected by flow cytometry. B) Representative flow cytometry histogram showing distribution of cellular populations after sorting. C) Quantification of FITC-glycine binding detected in flow cytometry binding experiments. The median of fluorescence (MFI) is quantified and plotted. Error bars are s.e.m. values, N=3, **p<0.01, ****p<0.0001, two-way ANOVA. D) Schematics of the radioligand binding assay. E) Quantification of ^3H-glycine binding to membrane expressing GPR158. Count Per minute (CPM) are measured and plotted. Data shown mean of 4 independent experiments error bars are s.e.m. values, n=4. […] Data shown mean of 4 independent experiments error bars are s.e.m. values, n=4. […] Control (thick line), GPR158 (thin line) I) Quantification of binding determined by fitting the integrated isotherm to an independent binding model.
Next, the inventors performed radioligand binding assays examining binding of [^3H]-labeled glycine to HEK293 cells expressing GPR158 (FIG. 7A). […] The inventors detected saturable [^3H]-glycine binding to membranes containing GPR158 is substantial excess over linear non-specific binding to membranes devoid of GPR158 (FIG. 9E). […]
Membrane binding assay was conducted using HEK293FT cells cultured in 6 well plates at the density of 10^6 per well and transfected with 2 μg of cDNA of GPR158 or empty pcDNA3.1+ for ctrl cells using Metafectene Pro. […] Finally, each filter was incubated in 5 ml of scintillation cocktail (Ecoscint XR, National Diagnostics), homogenized and radioactivity were measured using the liquid scintillation counter Hidex 600SL. The saturation binding curve, Scatchard plots and affinity KD and Bmax constants were calculated using Graphpad Prism 9.0 by fitting a non-linear regression binding saturation curve. […]

## NCC(=O)O [^3H-glycine, [^3H]-glycine]
  Kd: 2620 ± 1820 nM
Excess over linear non-specific binding to membranes devoid of GPR158
  binding to membranes containing GPR158: saturable

## NCC(=O)O [glycine]
  Kd: ~3000 nM

Reference: US20260376293A1, “METHODS FOR STUDYING GPR158 PHARMACOLOGY AND IDENTIFICATION OF ITS LIGANDS” (UNIVERSITY OF FLORIDA RESEARCH FOUNDATION, INCORPORATED, priority 2022, published 2026)
